We go through 2 compounds from patent US8410310B2, “Trypsin-like serine protease inhibitors, and their preparation and use” (The Medicines Company (Leipzig) GmbH, priority 2006, dated 2013).

The target of one assay is trypsin. Conditions: background; cited from earlier work.
Assay [1] relates to thrombin generation in platelet-rich human plasma. In words: Thrombin generation assay (Technothrombin TGA). It is filed as cell-based. The note with it: 100 to 1000 nM, intrinsic and extrinsic activation. As for the experimental part: Venous blood was withdrawn from the antecubital vein from healthy volunteers after written informed consent in accordance with local and federal guidelines with approval of the local review board (Ethikkommission, Klinikum Charité, Sauerbruchweg 5, 10117 Berlin). The blood was mixed with 0.11 mol/L sodium citrate (1:10). For ROTEM® analysis, whole citrated blood was used within 8 h after collection. Platelet-rich plasma (PRP) was prepared from citrated blood by centrifugation at 330×g for 10 min at room temperature, platelet-poor plasma (PPP) was collected following centrifugation at 1220×g for 12 min. The PRP was then adjusted to 3×10^8 platelets per mL using the autologous PPP. PRP was maintained at room temperature for less than 4 h before analysis. The remaining PPP was subjected to a high-speed centrifugation at 40,000×g for 30 min at 4° C. to remove any particulate material and was then stored at −70° C. until use.
The impact of Compound No. 3 and aprotinin on thrombin generation was studied in PRP using the commercially available Technothrombin® TGA kit (Technoclone, Vienna, Austria). This method allows assessment of the dynamics of thrombin generation, i.e. initiation, propagation, and inactivation phases, including the contribution of platelet function to the clotting process (Hemker et al., Pathophysiol. Haemost. Thromb. 33: 4-15, 2003). PRP was spiked with test compounds at different concentrations and pre-warmed to 37° C. in a black 96-well flat-bottom plate (Nunc, Wiesbaden, Germany). Thrombin generation was then initiated by adding a mixture of activator and fluorogenic thrombin substrate. […] Starting immediately after addition of reagents, fluorescence was recorded every 60 s for 120 min using the BMG POLARstar microplate reader (BMG Labtech, Offenburg, Germany) set at 390 nm excitation and 460 nm emission maintaining a temperature of 37° C. […] A typical thrombin generation curve is generated by plotting the first derivative (dF/dt) of the original fluorescence versus time curve and comparing it to a standard run containing known amounts of thrombin in buffer. […]

For a further assay, the target named is plasmin (Homo sapiens, UniProt P00747). The assay can be described thus: Determination of inhibition constants for plasmin. It is filed as biochemical. More on the design: purchased Calbiochem. Conditions: 25° C., substrate Chromozym PL, pH 8.0; read-out: Plasmin [Ki]. The method in brief:
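Chromogenic assays measured absorbance at 405 nm: zero-order reactions were stopped with acetic acid after 20 min, and pseudo-first-order rates were recorded kinetically at equilibrium. Ki was obtained by Dixon linear regression or by fitting to the competitive-inhibition rate equation, averaging at least two determinations.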

Some results are limits rather than exact numbers.

Sequence of plasmin (P00747 581-810 limits assumed): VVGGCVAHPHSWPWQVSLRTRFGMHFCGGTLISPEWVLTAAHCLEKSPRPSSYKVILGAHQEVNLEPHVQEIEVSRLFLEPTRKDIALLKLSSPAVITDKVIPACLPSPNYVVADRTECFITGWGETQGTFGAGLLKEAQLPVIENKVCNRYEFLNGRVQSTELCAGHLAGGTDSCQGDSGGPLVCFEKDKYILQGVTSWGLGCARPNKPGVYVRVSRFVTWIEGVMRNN
Sequence of plasmin (P00747 97-580 partner limits assumed): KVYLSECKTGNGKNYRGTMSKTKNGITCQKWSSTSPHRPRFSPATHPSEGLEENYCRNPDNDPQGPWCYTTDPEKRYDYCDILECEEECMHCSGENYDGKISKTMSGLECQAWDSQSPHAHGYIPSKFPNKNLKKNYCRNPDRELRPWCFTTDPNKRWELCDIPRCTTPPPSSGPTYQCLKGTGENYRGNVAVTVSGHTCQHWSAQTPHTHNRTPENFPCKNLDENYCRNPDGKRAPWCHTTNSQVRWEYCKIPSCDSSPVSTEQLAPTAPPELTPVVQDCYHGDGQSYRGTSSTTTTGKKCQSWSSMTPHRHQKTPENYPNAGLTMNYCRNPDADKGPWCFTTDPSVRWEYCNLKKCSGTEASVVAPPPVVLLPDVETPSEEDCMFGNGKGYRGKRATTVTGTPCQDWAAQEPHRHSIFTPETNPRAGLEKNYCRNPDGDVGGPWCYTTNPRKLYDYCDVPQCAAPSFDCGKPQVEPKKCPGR

Regarding aprotinin, the Ki on trypsin was 0.1 nM.

For the compound `N=C(N)c1ccc(CNC(=O)[C@H](Cc2cccc(CN)c2)NC(=O)[C@@H](CCCc2ccccc2)NS(=O)(=O)Cc2cccc(C(=O)O)c2)cc1` [compound 3, 3-HOOC-Bzls-d-Ppg-Phe(3-Ame)-4-Amba×2 acetate], in assay [1], the endogenous thrombin potential result is given as “no impact”, the “onset of thrombin generation” value is listed as “concentration-dependent delay” and the peak thrombin level result was “reduction”. For the same compound, on plasmin, the Ki was below 10 nM.

As a reminder, the Ki is the equilibrium dissociation constant of an inhibitor or competing ligand from its target.
